Measured values reported in ChEMBL document CHEMBL1201862, “PubChem BioAssay data set” (2004).
Each block holds one molecule with its values, some of them ahead of it. The source made the active and inactive calls.

How the values were obtained:
[1] = biological target: G-protein coupled receptor 55 (Homo sapiens, UniProt Q9Y2T6); experiment: SAR Analysis of Selective Antagonists of GPR55 using an Image-Based Assay - Set 4. [Related pubchem assays (depositor defined):AID2013, AID2026]; assay type: functional;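 further: antagonism of response to 5 µM lysophosphatidylinositol agonist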
Chain of G-protein coupled receptor 55 (Q9Y2T6 whole entry): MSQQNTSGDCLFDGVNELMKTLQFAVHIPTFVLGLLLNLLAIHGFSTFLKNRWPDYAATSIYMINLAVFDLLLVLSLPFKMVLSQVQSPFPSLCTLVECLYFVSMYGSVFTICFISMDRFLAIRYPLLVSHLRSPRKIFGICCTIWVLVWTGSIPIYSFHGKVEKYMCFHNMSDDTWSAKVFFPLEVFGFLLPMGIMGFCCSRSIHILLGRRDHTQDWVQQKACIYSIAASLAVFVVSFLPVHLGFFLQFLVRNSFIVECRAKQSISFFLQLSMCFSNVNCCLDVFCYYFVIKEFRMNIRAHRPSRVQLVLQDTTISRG

[2] = biological target: T1, Probable nicotinate-nucleotide adenylyltransferase (Staphylococcus aureus (strain N315), UniProt P65502); assay type: functional, Staphylococcus aureus subsp. aureus N315;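 on IC50 Mean: confirmatory dose-response retesting of NadD inhibitor hits first found in an ultra-high-throughput screen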
[3] = biological target: T2, Cannabinoid receptor 1 (Homo sapiens, UniProt P21554); experiment: SAR analysis of agonists of the Cannabinoid Receptor 1 using an Image-Based Assay - Set 4. [Related pubchem assays (depositor defined):AID2013, AID2026]; assay type: functional
T2 sequence (P21554 whole entry): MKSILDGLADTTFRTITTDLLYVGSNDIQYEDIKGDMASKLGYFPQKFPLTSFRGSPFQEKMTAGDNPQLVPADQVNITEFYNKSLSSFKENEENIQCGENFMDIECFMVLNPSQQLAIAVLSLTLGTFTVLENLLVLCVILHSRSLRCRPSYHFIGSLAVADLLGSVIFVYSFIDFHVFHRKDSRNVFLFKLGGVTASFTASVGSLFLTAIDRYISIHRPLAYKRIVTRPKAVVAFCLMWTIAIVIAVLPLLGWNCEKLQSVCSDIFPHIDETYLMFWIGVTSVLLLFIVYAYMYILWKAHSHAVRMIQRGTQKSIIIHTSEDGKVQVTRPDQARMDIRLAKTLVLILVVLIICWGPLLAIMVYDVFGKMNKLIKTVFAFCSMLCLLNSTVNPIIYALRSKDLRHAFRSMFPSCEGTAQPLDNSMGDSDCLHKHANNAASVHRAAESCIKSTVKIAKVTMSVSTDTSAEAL

[4] = biological target: T2, Cannabinoid receptor 1; experiment: SAR analysis of antagonists of the Cannabinoid Receptor 1 using an Image-Based Assay - Set 4. [Related pubchem assays (depositor defined):AID2013, AID2026]; assay type: functional
[5] = HEp-2 cell cytotoxicity, dose response, cytotoxicity control for RSV inhibitor project, HTS (AID 2410); assay type: functional; conditions: human respiratory syncytial virus
[6] = biological target: T3, Cannabinoid receptor 2 (Homo sapiens, UniProt P34972); experiment: SAR analysis of antagonists of the Cannabinoid Receptor 2 using an Image-Based Assay - Set 3. [Related pubchem assays (depositor defined):AID2013, AID2026]; assay type: functional
T3 sequence (P34972 whole entry): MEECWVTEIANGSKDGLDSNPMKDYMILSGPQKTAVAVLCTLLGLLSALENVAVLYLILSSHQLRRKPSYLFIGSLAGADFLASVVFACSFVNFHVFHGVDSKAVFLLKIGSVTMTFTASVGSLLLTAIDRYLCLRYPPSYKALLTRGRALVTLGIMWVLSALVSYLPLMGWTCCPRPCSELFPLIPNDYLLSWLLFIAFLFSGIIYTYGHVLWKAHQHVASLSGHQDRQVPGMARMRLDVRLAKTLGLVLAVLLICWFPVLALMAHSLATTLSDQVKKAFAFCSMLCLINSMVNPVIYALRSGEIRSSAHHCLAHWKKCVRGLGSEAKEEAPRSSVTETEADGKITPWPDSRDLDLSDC

[7] = biological target: T4, G-protein coupled receptor 35 (Homo sapiens, UniProt Q9HC97); experiment: SAR analysis of Antagonists of the GPR35 Receptor using an Image-Based Assay - Set 6. [Related pubchem assays (depositor defined):AID2013, AID2026]; assay type: functional
T4 sequence (Q9HC97 whole entry): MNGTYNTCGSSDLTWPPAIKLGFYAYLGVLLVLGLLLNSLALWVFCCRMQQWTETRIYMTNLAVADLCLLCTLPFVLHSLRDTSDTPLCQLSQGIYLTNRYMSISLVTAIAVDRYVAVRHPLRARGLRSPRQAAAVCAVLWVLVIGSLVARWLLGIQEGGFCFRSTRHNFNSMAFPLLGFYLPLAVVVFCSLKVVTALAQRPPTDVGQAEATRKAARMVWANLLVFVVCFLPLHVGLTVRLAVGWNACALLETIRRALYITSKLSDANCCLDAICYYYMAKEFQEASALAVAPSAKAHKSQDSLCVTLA

[8] = biological target: T1, Probable nicotinate-nucleotide adenylyltransferase; assay type: functional, Staphylococcus aureus subsp. aureus N315; conditions: read-out: IC50_Mean
[9] = biological target: T3, Cannabinoid receptor 2; experiment: SAR analysis of agonists of the Cannabinoid Receptor 2 using an Image-Based Assay - Set 3. [Related pubchem assays (depositor defined):AID2013, AID2026]; assay type: functional
[10] = biological target: T4, G-protein coupled receptor 35; experiment: SAR analysis of Agonists of the GPR35 Receptor using an Image-Based Assay - Set 4. [Related pubchem assays (depositor defined):AID2013, AID2026]; assay type: functional
[11] = biological target: Intestinal-type alkaline phosphatase (Mus musculus, UniProt P24822); experiment: PubChem AID 488875; assay type: functional
Chain of Intestinal-type alkaline phosphatase (Mus musculus, UniProt P24822) (P24822 whole entry): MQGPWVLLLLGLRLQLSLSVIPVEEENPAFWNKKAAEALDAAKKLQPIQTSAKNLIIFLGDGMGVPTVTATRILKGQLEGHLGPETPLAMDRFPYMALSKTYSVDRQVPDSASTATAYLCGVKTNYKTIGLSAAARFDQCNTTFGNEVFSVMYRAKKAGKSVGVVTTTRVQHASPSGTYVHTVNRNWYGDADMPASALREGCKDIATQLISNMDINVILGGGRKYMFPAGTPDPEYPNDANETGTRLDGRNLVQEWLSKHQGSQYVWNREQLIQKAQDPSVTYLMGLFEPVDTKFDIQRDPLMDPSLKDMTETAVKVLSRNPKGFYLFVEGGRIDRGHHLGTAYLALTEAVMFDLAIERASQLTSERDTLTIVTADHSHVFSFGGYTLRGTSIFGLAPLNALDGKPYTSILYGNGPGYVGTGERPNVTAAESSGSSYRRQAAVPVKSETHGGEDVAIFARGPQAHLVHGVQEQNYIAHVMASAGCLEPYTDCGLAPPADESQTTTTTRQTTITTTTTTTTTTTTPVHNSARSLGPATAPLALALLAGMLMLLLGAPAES

[12] = biological target: T5, Alkaline phosphatase, tissue-nonspecific isozyme (Homo sapiens, UniProt P05186); experiment: TNAP enzyme activators, dose response, selectivity assay for human IAP activator project, biochemical, TNAP isozyme, human IAP uHTS hits (AID 488886); assay type: functional;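 further: potency of compounds raising TNAP activity as a selectivity check on IAP activators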
T5 sequence (P05186 whole entry): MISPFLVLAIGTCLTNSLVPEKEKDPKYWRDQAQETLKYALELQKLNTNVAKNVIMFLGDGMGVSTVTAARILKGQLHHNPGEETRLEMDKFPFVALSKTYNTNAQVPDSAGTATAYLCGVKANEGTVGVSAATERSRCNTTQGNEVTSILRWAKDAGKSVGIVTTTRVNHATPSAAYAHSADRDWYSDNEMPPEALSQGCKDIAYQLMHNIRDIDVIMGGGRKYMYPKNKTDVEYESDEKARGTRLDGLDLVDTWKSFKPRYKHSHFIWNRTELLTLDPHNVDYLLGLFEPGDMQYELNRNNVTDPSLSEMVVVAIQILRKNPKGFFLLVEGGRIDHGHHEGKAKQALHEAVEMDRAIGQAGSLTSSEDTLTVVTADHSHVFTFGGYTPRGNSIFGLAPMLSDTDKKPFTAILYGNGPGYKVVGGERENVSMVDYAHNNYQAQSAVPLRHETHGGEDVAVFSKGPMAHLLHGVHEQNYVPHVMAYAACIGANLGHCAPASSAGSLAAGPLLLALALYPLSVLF

[13] = biological target: T6, Intestinal-type alkaline phosphatase (Homo sapiens, UniProt P09923); experiment: human IAP activators, dose response, biochemical, luminescent, uHTS hits, set 2 (AID 488817); assay type: functional;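 further: potency of activators that raise enzyme activity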
T6 sequence (P09923 whole entry): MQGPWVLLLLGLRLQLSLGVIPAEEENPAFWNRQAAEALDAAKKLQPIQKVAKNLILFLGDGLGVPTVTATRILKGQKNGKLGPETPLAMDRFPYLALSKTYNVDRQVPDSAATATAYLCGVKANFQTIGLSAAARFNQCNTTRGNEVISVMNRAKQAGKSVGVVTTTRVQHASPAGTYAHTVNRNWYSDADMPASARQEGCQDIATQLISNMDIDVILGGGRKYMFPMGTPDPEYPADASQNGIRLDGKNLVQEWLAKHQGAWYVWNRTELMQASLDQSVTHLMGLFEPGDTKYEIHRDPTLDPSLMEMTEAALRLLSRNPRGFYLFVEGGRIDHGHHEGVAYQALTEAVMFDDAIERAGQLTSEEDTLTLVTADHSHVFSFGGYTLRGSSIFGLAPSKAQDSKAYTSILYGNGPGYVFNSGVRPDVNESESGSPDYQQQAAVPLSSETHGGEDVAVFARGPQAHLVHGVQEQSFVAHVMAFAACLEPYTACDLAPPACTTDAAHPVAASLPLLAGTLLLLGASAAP

[14] = biological target: T6, Intestinal-type alkaline phosphatase; experiment: human intestinal alkaline phosphatase activators, dose response, biochemical, luminescence, uHTS hits (AID 463120); assay type: functional
[15] = biological target: T7, Tyrosine-protein phosphatase non-receptor type 7 (Homo sapiens, UniProt P35236); assay type: functional
T7 sequence (P35236 whole entry): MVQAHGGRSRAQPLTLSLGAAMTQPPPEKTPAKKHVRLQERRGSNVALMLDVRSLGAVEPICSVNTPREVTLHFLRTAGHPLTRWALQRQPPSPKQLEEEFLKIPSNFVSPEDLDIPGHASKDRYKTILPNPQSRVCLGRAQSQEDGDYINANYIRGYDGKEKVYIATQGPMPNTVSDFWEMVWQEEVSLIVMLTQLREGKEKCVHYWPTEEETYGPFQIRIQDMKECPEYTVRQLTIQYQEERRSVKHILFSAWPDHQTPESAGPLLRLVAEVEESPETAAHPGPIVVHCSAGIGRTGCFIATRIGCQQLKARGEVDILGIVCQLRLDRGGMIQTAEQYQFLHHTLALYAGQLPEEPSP

[16] = biological target: T8, Tyrosine-protein phosphatase non-receptor type 22 (Homo sapiens, UniProt Q9Y2R2); assay type: functional
T8 sequence (Q9Y2R2 whole entry): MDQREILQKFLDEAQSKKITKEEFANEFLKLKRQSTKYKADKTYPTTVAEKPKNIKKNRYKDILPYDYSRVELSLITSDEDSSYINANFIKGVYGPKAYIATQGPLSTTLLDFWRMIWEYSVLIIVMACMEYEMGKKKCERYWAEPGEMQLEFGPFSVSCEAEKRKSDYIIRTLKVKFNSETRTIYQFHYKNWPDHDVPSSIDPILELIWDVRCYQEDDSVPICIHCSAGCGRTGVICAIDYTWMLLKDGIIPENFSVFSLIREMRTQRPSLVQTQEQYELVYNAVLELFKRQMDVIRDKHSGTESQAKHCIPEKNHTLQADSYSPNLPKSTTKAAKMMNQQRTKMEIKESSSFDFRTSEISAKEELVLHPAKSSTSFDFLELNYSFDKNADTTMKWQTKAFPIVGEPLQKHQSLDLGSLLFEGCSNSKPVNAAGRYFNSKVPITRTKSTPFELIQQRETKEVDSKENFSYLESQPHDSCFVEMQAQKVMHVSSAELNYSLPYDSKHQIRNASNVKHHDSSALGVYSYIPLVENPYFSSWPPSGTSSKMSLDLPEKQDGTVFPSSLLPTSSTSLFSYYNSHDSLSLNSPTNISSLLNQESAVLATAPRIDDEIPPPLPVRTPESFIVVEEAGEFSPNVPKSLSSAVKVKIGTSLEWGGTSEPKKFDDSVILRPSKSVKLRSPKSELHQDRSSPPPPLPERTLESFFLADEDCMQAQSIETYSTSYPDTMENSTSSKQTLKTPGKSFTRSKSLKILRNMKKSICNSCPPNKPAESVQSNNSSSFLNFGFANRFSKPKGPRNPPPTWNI

[17] = biological target: T8, Tyrosine-protein phosphatase non-receptor type 22; assay type: functional; remark: listed apart in the source

- IC50 [1]: 7.7 µM (active)
- IC50 [2]: 5.29 µM (active)
- EC50 [3]: > 32 µM (inactive)
- IC50 [4]: 10.2 µM (inactive)
- IC50 [6]: > 32 µM (inactive)
- IC50 [7]: > 32 µM (inactive)
- IC50 [8]: 21.6 µM (active)
- EC50 [9]: > 32 µM (inactive)
- EC50 [10]: > 32 µM (inactive)
Compound: Cc1ccc(-c2cc(C(=O)Nc3ccc(S(=O)(=O)Nc4nccs4)cc3)c3ccccc3n2)c(C)c1
- CC50 [5]: 24.3 µM (active)

- EC50 [11]: 22.4 µM (active)
- EC50 [12]: 38.8 µM (active)
- EC50 [13]: 44.3 µM (active)
- EC50 [14]: 39.8 µM (active)
Compound: CC(N=C(S)NC1CCC(C(C)(C)C)CC1)c1ccccc1 (configuration not stated)

- IC50 [15]: > 79.4 µM (inactive)
- IC50 [16]: > 79.4 µM (inactive)
- IC50 [17]: > 79.4 µM (inactive)
Compound: COc1ccc(C2CC(c3ccc(C)cc3)=NN2C(=O)CCC(=O)O)cc1OC (configuration not stated)
